Measurements reported in US8686022B2, “7-(piperazine-1-ymethyl)-1H-indole-2-carboxylic acid (phenyl)-amide derivatives and allied compounds as p38 MAP kinase inhibitors for the treatment of respiratory diseases” (Boehringer Ingelheim International GmbH, priority 2008, dated 2014).
pIC50: −log10 of the molar value. In brackets after ≈: the same amount, converted by molar mass. Several values for one entry are separate records, joined by “and”; a condition that tells them apart may be missing. Equal entries are not always repeated.

Key:
[1] = molecular target: p38 MAP-kinase (Homo sapiens, UniProt Q16539); assay: p38 MAP-kinase enzymatic assay (phosphorylation of GST-tagged ATF2, chemoluminescence); type: biochemical; details: inhibitor concentration 1 μM, activated p38 MAP-kinase 1 nM, ATP 100 μM; for inhibition at 1 µM: read-out: p38 (% Inh @ 1 μM)
p38 MAP-kinase, sequence (Q16539 whole entry): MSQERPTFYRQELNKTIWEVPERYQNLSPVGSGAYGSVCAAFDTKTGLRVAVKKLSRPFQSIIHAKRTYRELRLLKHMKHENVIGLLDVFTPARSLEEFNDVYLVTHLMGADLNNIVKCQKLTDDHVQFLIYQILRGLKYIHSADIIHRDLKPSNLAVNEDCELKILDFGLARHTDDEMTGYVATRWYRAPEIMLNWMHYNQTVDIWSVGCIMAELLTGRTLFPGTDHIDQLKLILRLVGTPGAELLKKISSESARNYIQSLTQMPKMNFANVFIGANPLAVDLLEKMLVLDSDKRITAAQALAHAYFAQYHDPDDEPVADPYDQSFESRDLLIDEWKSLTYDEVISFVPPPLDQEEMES
Experimental: In this, the amount of a substrate phosphorylated by the kinase is quantified. The test is carried out as follows:
The kinase reaction is carried out in the presence of HEPES (20 mM, pH 7), MgCl2 (10 mM), DTT (1 mM) and TWEEN20 (0.01%). First, dimethylsulphoxide or inhibitor (final concentration: 1 μM) dissolved in dimethylsulphoxide are placed in a reaction vessel. Then the activated p38 MAP-kinase (final concentration 1 nM) is added and the mixture is incubated for 4 h at ambient temperature. Then a mixture of substrate (GST-tagged ATF2) and ATP is added and everything is incubated together for a further hour (final concentration ATP: 100 μM; final concentration ATF2: 10 nM).
The concentration of phosphorylated ATF2 is quantified by chemoluminescence-induced light emission. For this, a glutathione donor bead (final concentration: 5 μg/ml) which binds to the gluthathione on the ATF2 and phospho-ATF2 antibodies are added to the reaction mixture (final concentration: 3 nM; this binds the phosphate group added by the kinase reaction) to which a Protein A Acceptor Bead (final concentration: 5 μg/ml) binds. These components are dissolved in a buffer which contains 20 mM HEPES pH 7.0, 200 mM NaCL, 80 mM EDTA as well as 0.3% BSA. This reaction mixture is incubated in the dark for 1 hour at ambient temperature. When these beads come physically close, visible light is emitted which is measured in a photometer at 520-620 nm.
To determine the inhibitory activity of the compounds according to the invention a calculation is made to determine the percentage by which the kinase activity is inhibited at a fixed inhibitor concentration of 1 μM. The maximum activity is determined by non-inhibited kinase. The minimum activity or nonspecific background activity is determined using a reaction mixture without kinase.
Table 2 summarises the degree of inhibition of the enzyme p38 MAP-kinase—as described hereinbefore—mediated by the compounds according to the invention detailed in the section “Preparation of the final compounds”.

[2] = molecular target: cytochrome P450 2C9 (Homo sapiens, UniProt P11712); assay: Determining the cyp2C9 activity (O-demethylation of [O-methyl-14C]-naproxen); type: in vitro ADME; details: human recombinant cytochrome P450 2C9; 37° C.; <0.4 μM when inhibition >50% at lowest concentration; read-out: CYP 2C9 IC50
cytochrome P450 2C9, sequence (P11712 whole entry): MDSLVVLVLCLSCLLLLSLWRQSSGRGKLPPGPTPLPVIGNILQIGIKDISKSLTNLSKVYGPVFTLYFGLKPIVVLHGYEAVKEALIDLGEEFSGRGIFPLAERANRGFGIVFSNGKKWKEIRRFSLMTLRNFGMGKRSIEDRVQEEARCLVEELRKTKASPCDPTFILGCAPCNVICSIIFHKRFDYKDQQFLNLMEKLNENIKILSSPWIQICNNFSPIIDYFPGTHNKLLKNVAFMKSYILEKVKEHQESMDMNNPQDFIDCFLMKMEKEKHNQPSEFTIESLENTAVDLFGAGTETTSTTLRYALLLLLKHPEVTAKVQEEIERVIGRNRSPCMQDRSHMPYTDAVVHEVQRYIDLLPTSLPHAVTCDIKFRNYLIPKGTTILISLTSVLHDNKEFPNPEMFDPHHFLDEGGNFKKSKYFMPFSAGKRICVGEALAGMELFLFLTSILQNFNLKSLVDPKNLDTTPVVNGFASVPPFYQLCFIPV
Experimental: Determining the cyp2C9 Activity:
The assay is carried out in a robot system with 96-well plates. The final incubation volume is 200 μl of TRIS-Puffer (0.1 M), magnesium chloride (5 mM), recombinant protein (40 pmol/ml), ^14C-labelled naproxen (80 μM) and the test compound in one of 4 concentrations (50 μM, 10 μM, 2 μM and 0.4 μM) as a duplicate in each case. After a short preincubation period the reactions are started by the addition of the cofactor (NADPH, 1 mM) and ended after 15 min by the addition of 50 μl of a 10% aqueous trichloroacetic acid solution. One aliquot of the incubate is transferred onto a 96-well solid phase extraction plate and extracted. The ^14C-formaldehyde formed during the reaction is not retained on the solid phase extraction plate and is thus separated from the unmetabolised substrate by washing the solid phase extraction plate with water. One aliquot of the eluate is transferred into a well plate suitable for liquid scintillation. […] The IC50 is determined by the least squares method using the following formula: control activity=(100% control activity/(1+(I/IC50)S))−B where I=Inhibitor concentration S=Pitch B=Background activity
When the inhibition of the reaction is >50% even at the lowest concentration of the test compound, the IC50 is given as <0.4 μM.

[3] = Determining the solubility (saturated solution in McIlvaine buffer pH 7.4, UV spectroscopy); type: physicochemical; details: pH 7.4, aqueous buffer, thermodynamic from solid, shaken 2 hours, 0.75 mg solid in 0.75 ml
Experimental: Determining the Solubility:
Saturated solutions are prepared in suitable well dishes by adding 0.75 ml of a McIlvaine buffer (pH 7.4) to the well in question containing 0.75 mg of solid of an active substance. The wells are shaken for 2 hours and then filtration is carried out through a suitable filter membrane (typically polytetrafluoroethylene with a pore size of 0.45 μm). Filter absorption is prevented by discarding the first few drops of filtrate. The amount of active substance dissolved is determined by UV spectroscopy.

inhibition at 1 µM [1] [%]	pIC50 [2]	solubility at 2 h [3] [µg/mL]	p38 (% Inh @ 1 μM) [1]	SMILES
99.1	6.36	370 (≈ 628 µM)	–	COc1c(NC(=O)c2cc3cccc(CN4CCN(C(=O)[C@@H]5CCCN5C)CC4)c3n2C)cc(C(C)(C)C)cc1C(N)=O [10(4), (S)-1-methyl-7-[4-(1-methyl-pyrrolidine-2-carbonyl)-piperazin-1-ylmethyl]-1H-indole-2-carboxylic acid-(5-tert-butyl-3-carbamoyl-2-methoxy-phenyl)-amide]
97.5	5.16	490 (≈ 714 µM)	–	COc1c(CN2CCC(N(C)C)CC2)cc(C(C)(C)C)cc1NC(=O)c1cc2cccc(CN3CCN(C(=O)[C@@H]4CCCN4C)CC3)c2n1C [9(5), (S)-1-methyl-7-[4-(1-methyl-pyrrolidine-2-carbonyl)-piperazin-1-ylmethyl]-1H-indole-2-carboxylic acid-[5-tert-butyl-3-(4-dimethylamino-piperidin-1-ylmethyl)-2-methoxy-phenyl]-amide]
92	5.23	450 (≈ 730 µM)	–	COc1c(NC(=O)c2cc3cccc(CN4CCN(C(=O)[C@@H]5CCCN5C)CC4)c3n2C)cc(C(C)(C)C)cc1C(=O)N(C)C [Example 11, (S)-1-methyl-7-[4-(1-methyl-pyrrolidine-2-carbonyl)-piperazin-1-ylmethyl]-1H-indole-2-carboxylic acid-(5-tert-butyl-3-dimethylcarbamoyl-2-methoxy-phenyl)-amide]
98.8	4.35	880 (≈ 1280 µM)	–	COc1c(CN2CCN(C(C)C)CC2)cc(C(C)(C)C)cc1NC(=O)c1cc2cccc(CN3CCN(C(=O)[C@@H]4CCCN4C)CC3)c2n1C [9(7), (S)-1-methyl-7-[4-(1-methyl-pyrrolidine-2-carbonyl)-piperazin-1-ylmethyl]-1H-indole-2-carboxylic acid-[5-tert-butyl-3-(4-isopropyl-piperazin-1-ylmethyl)-2-methoxy-phenyl]-amide]
98.6	6.11 and 6.06 and 6.25	–	99.0% and 98.7%	COc1c(NC(=O)c2cc3cccc(CN4CCN(C(=O)[C@@H]5CCCN5C)CC4)c3n2C)cc(C(C)(C)C)cc1[S+](C)[O-] (stereo partly drawn) [11(3), 1-methyl-7-[4-((2S)-1-methyl-pyrrolidine-2-carbonyl)-piperazin-1-ylmethyl]-1H-indole-2-carboxylic acid-(5-tert-butyl-3-methanesulphinyl-2-methoxy-phenyl)-amide]

The remaining lines, values behind:

SMILES	inhibition at 1 µM [1] [%]	pIC50 [2]	solubility at 2 h [3] [µg/mL]	p38 (% Inh @ 1 μM) [1]
COc1c(NC(=O)c2cc3cccc(CN4CCN(C(=O)C5CC5)CC4)c3n2C)cc(C(C)(C)C)cc1NS(C)(=O)=O [Vc, reference compound]	99.1	> 6.40	< 1	–
CN1CCC[C@H]1C(=O)N1CCN(Cc2cccc3cc(C(=O)Nc4cccc(N5CCOCC5)c4)n(C)c23)CC1 [1(25), (S)-1-methyl-7-[4-(1-methyl-pyrrolidine-2-carbonyl)-piperazin-1-ylmethyl]-1H-indole-2-carboxylic acid-(3-morpholin-4-yl-phenyl)-amide]	35.4	5.10	48 (≈ 88.1 µM)	–
COc1c(NC(=O)c2cc3cccc(CN4CCN(C(=O)N5CC[C@H](N(C)C)C5)CC4)c3n2C)cc(C(C)(C)C)cc1NS(C)(=O)=O [2(1), (S)-7-[4-(3-dimethylamino-pyrrolidine-1-carbonyl)-piperazin-1-ylmethyl]-1-methyl-1H-indole-2-carboxylic acid (5-tert-butyl-3-methanesulphonylamino-2-methoxy-phenyl)-amide]	99	6.06	28 (≈ 41.9 µM)	–
COc1c(NC(=O)c2cc3cccc(CC4CCCN(C(=O)[C@H]5CCCN5C)CC4)c3n2C)cc(C(C)(C)C)cc1NS(C)(=O)=O (stereo partly drawn) [1(20), 1-methyl-7-[1-((2R)-1-methyl-pyrrolidine-2-carbonyl)-azepan-4-ylmethyl]-1H-indole-2-carboxylic acid-(5-tert-butyl-3-methanesulphonylamino-2-methoxy-phenyl)-amide]	99.1	5.59	124 (≈ 190 µM)	–
COc1c(NC(=O)c2cc3cccc(CN4CCN(C(=O)C5CCN(C)CC5)CC4)c3n2C)cc(C(C)(C)C)cc1NS(C)(=O)=O [Example 1, 1-methyl-7-[4-(1-methyl-piperidine-4-carbonyl)-piperazin-1-ylmethyl]-1H-indole-2-carboxylic acid(5-tert-butyl-3-methanesulphonylamino-2-methoxy-phenyl)-amide]	98.9	5.62	360 (≈ 551 µM)	–
CCC(C)c1cc(NC(=O)c2cc3cccc(CN4CCN(C(=O)[C@@H]5CCCN5C)CC4)c3n2C)c(OC)c(NS(C)(=O)=O)c1 (stereo partly drawn) [11(1), 1-methyl-7-[4-((2S)-1-methyl-pyrrolidine-2-carbonyl)-piperazin-1-ylmethyl]-1H-indole-2-carboxylic acid-(5-sec-butyl-3-methanesulphonylamino-2-methoxy-phenyl)-amide]	13.2	5.58	> 1000	–
COc1c(NC(=O)c2cc3cccc(CN4CCN(C(=O)CC5CC5)CC4)c3n2C)cc(C(C)(C)C)cc1NS(C)(=O)=O [Va, reference compound]	98.8	> 6.40	< 1	–
COc1c(NC(=O)c2cc3cccc(CN4CCN(C(=O)CN5CC[C@H](N(C)C)C5)CC4)c3n2C)cc(C(C)(C)C)cc1NS(C)(=O)=O [6(3), (S)-7-{4-[2-(3-dimethylamino-pyrrolidin-1-yl)-acetyl]-piperazin-1-ylmethyl}-1-methyl-1H-indole-2-carboxylic acid-(5-tert-butyl-3-methanesulphonylamino-2-methoxy-phenyl)-amide]	98.5	5.53	910 (≈ 1330 µM)	–
COc1c(CN2CCN(C)CC2)cc(C(C)(C)C)cc1NC(=O)c1cc2cccc(CN3CCN(C(=O)[C@@H]4CCCN4C)CC3)c2n1C [Example 9, (S)-1-methyl-7-[4-(1-methyl-pyrrolidine-2-carbonyl)-piperazin-1-ylmethyl]-1H-indole-2-carboxylic acid-[5-tert-butyl-2-methoxy-3-(4-methyl-piperazin-1-ylmethyl)-phenyl]-amide]	98.8	4.96	> 1000	–
COc1c(NC(=O)c2cc3cccc(CN4CCN(C(=O)[C@H]5C[C@@H](O)CN5C)CC4)c3n2C)cc(C(C)(C)C)cc1NS(C)(=O)=O [1(10), 7-[4-((2R,4R)-4-hydroxy-1-methyl-pyrrolidine-2-carbonyl)-piperazin-1-ylmethyl]-1-methyl-1H-indole-2-carboxylic acid(5-tert-butyl-3-methanesulphonylamino-2-methoxy-phenyl)-amide]	99.6	6.39	43 (≈ 65.7 µM)	–
COc1c(NC(=O)c2cc3cccc(CN4CCN(C(=O)[C@H]5CCCN5C)CC4)c3n2C)cc(C(C)(C)C)cc1NS(C)(=O)=O [1(3), (R)-1-methyl-7-[4-(1-methyl-pyrrolidine-2-carbonyl)-piperazin-1-ylmethyl]-1H-indole-2-carboxylic acid(5-tert-butyl-3-methanesulphonylamino-2-methoxy-phenyl)-amide]	99.1	5.98	160 (≈ 250 µM)	–
